According to patent US20260083704A1, “LXR MODULATORS WITH BICYCLIC CORE MOIETY FOR TREATING DYSLIPIDEMIAS” (OrsoBio, Inc., priority 2022, published 2026):

How the values were obtained:
[1] = tested on: LXR target genes (Scd1, Fas, Srebp1) in liver; assay: Short term HFD mouse model: gene expression in liver tissue; assay type: in vivo; conditions: HFD mice, expression normalized to Tbp; for response vs control in vivo at 20 mg/kg / response vs control in vivo at 10 mg/kg: Mus musculus, 4 h, read-out: Scd1 suppresion compared to vehicle
Procedure: The in vivo transcriptional regulation of several LXR target genes by LXR modulators was assessed in mice.
For this, C57BL/6J were purchased from Elevage Janvier (Rennes, France) at the age of 8 weeks. After an acclimation period of two weeks, animals were prefed on a high fat diet (HFD) (Ssniff Spezialdiäten GmbH, Germany, Surwit EF D12330 mod, Cat. No. E15771-34), with 60 kcal % from fat plus 1% (w/w) extra cholesterol (Sigma-Aldrich, St. Louis, MO) for 5 days. Animals were maintained on this diet during treatment with LXR modulators. The test compounds were formulated in 0.5% hydroxypropylmethylcellulose (HPMC) and administered in three doses (from 1.5 to 20 mg/kg each) by oral gavage according to the following schedule: on day one, animals received treatment in the morning and the evening (ca. 17:00), on day two animals received the final treatment in the morning after a 4 h fast and were sacrificed 4 h thereafter. Animal work was conducted according to the national guidelines for animal care in Germany.
Analysis of gene expression in liver tissue. To obtain total RNA from frozen liver tissue, samples (25 mg liver tissue) were first homogenized with RLA buffer (4M guanidin thiocyanate, 10 mM Tris, 0.97% w:v β-mercapto-ethanol). RNA was prepared using a SV 96 total RNA Isolation system (Promega, Madison, Wisconsin, USA) following the manufacturer's instructions. cDNAs were synthesized from 0.8-1 μg of total RNA using All-in-One cDNA Supermix reverse transcriptase (Absource Diagnostics, Munich, Germany). Quantitative PCR was performed and analyzed using Prime time Gene expression master mix (Integrated DNA Technologies, Coralville, Iowa, USA) and a 384-format ABI 7900HT Sequence Detection System (Applied Biosystems, Foster City, USA). The expression of the following genes was analysed: Stearoyl-CoA desaturase1 (Scd1), fatty acid synthase (Fas) and sterol regulatory element-binding protein1 (Srebp1). Specific primer and probe sequences (commercially available) are listed in Table 3. qPCR was conducted at 95° C. for 3 min, followed by 40 cycles of 95° C. for 15 s and 60° C. for 30 s. All samples were run in duplicates from the same RT-reaction. Gene expression was expressed in arbitrary units and normalized relative to the mRNA of the housekeeping gene TATA box binding protein (Tbp) using the comparative Ct method.

[2] = molecular target: T1, GST-LXRβ ligand-binding domain (Homo sapiens, UniProt P55055); assay: TR-FRETβ activity assay (NCoA3 coactivator peptide recruitment); assay type: biochemical; conditions: 1 μM 24(S)-25-epoxycholesterol prestimulation
T1 construct: amino acids 156-461; NP009052; made in house; host or cells: E. coli
T1 sequence (P55055 156-460 limits assumed): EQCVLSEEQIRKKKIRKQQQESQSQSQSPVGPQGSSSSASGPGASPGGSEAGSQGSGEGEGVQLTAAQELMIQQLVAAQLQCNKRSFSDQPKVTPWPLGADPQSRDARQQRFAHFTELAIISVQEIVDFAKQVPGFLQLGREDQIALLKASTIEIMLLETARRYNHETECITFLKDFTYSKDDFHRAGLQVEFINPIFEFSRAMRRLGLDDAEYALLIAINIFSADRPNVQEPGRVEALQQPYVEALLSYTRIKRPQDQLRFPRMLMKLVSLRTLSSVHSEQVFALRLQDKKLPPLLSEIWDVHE
In short: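 Inverse-agonist format, with LXR prestimulated by 1 μM 24(S)-25-epoxycholesterol in pH 6.8 Tris/HCl, 240 mM KCl, BSA and Triton. Ten concentrations from 50 μM to 0.002 μM were equilibrated 1 h at 4° C with 76 nM GST-LXRβ LBD and 400 nM biotin-NCoA3 peptide. Peptide recruitment detected by 665/615 nm TR-FRET.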

Row | Compound | Srebp1c suppr. compared to vehicle ([1]; three oral doses of 20 mg/kg) | response vs control in vivo at 20 mg/kg ([1]; three oral doses of 20 mg/kg) [%] | EC50 [2] [nM] | Fasn suppression compared to vehicle ([1]; three oral doses of 20 mg/kg) | Fasn suppression compared to vehicle ([1]; three oral doses of 10 mg/kg) | response vs control in vivo at 10 mg/kg ([1]; three oral doses of 10 mg/kg) [%] | Srebp1c suppr. compared to vehicle ([1]; three oral doses of 10 mg/kg)
1 | Cc1ccc(S(=O)(=O)n2c(-c3cccc(-c4ccc(C(=O)O)cc4Cl)c3)c(-c3ccsc3C#N)c3cc(F)ccc32)cc1 [3/48] | D (<0.3) | < 30 | 100 to 1000 | – | – | – | –
2 | O=C(O)c1ccc(-c2cccc(-c3c(-c4ccccc4C4COC4)c4cc(F)ccc4n3S(=O)(=O)c3ccc(C(F)F)cc3)c2)c(Cl)c1 [3/59] | D (<0.3) | 30 to 60 | < 100 | – | – | – | –
3 | Cc1ccc(S(=O)(=O)n2c(-c3cccc(C45CCC(C(=O)O)(CC4)CC5)c3)c(-c3ccsc3C#N)c3cc(F)ccc32)cc1 [3/64] | B (0.6 to ≤0.9) | < 30 | 100 to 1000 | B (0.6 to ≤0.9) | – | – | –
4 | N#Cc1cccc(C#N)c1-c1c(-c2cccc(-c3c(F)cc(CC(=O)O)cc3F)c2)n(S(=O)(=O)c2ccc(C(F)F)cc2)c2ccc(F)cc12 [3/73] | – | – | < 100 | – | A (>0.9) | < 30 | –
5 | Cc1ccc(S(=O)(=O)n2c(-c3cccc(-c4ccc(C(=O)O)cc4)c3)c(-c3ccsc3C#N)c3cc(F)ccc32)cc1 [5/3] | – | 30 to 60 | 100 to 1000 | D (<0.3) | – | – | –
6 | CC(=O)NS(=O)(=O)c1ccc(-c2cccc(-c3c(-c4c(C#N)cccc4C#N)c4cc(F)ccc4n3S(=O)(=O)c3ccc(C(F)F)cc3)c2)c(Cl)c1 [8/8] | – | – | < 100 | – | – | < 30 | D (<0.3)
7 | N#Cc1cccc(C#N)c1-c1c(-c2cccc(-c3ccc(C(=O)NCCS(=O)(=O)O)cc3Cl)c2)n(S(=O)(=O)c2ccc(C(F)F)cc2)c2ccc(F)cc12 [10/1] | – | – | < 100 | – | – | < 30 | D (<0.3)
8 | CN(CCS(=O)(=O)O)C(=O)c1ccc(-c2cccc(-c3c(-c4c(C#N)cccc4C#N)c4cc(F)ccc4n3S(=O)(=O)c3ccc(C(F)F)cc3)c2)c(Cl)c1 [10/2] | – | – | < 100 | – | – | 30 to 60 | C (0.3 to ≤0.6)
9 | N#Cc1nccnc1-c1c(-c2cccc(-c3cc(F)c(C(=O)O)cc3Cl)c2)n(S(=O)(=O)c2ccc(C(F)F)cc2)c2ccc(F)cc12 [11/11] | – | < 30 | < 100 | C (0.3 to ≤0.6) | – | – | –
10 | N#Cc1cccc(C#N)c1-c1c(-c2cccc(-c3ccc(C(=O)O)cc3Cl)c2)n(S(=O)(=O)c2ccc(C(F)F)cc2)c2ccc(F)cc12 [11/12] | – | < 30 | < 100 | C (0.3 to ≤0.6) | – | – | –
11 | O=C(O)c1ccc(-c2cccc(-c3c(-c4c(Cl)cccc4Cl)c4cc(F)ccc4n3S(=O)(=O)c3ccc(C(F)F)cc3)c2)c(Cl)c1 [11/13] | – | < 30 | < 100 | C (0.3 to ≤0.6) | – | – | –
12 | N#Cc1sccc1-c1c(-c2cccc(-c3ccc(C(=O)O)cc3Cl)c2)n(S(=O)(=O)c2ccc(C(F)(F)F)nc2)c2ccc(F)cc12 [11/16] | B (0.6 to ≤0.9) | 30 to 60 | 100 to 1000 | A (>0.9) | – | – | –
13 | N#Cc1sccc1-c1c(-c2cccc(-c3ccc(C(=O)O)cc3Cl)c2)n(S(=O)(=O)c2ccc(C(F)F)cc2)c2ccc(F)cc12 [11/17] | – | < 30 | < 100 | C (0.3 to ≤0.6) | – | – | –
14 | O=C(O)c1ccc(-c2cccc(-c3c(-c4ncccc4C(F)(F)F)c4cc(F)ccc4n3S(=O)(=O)c3ccc(C(F)F)cc3)c2)c(Cl)c1 [11/23] | – | < 30 | < 100 | C (0.3 to ≤0.6) | – | – | –
15 | N#Cc1cccnc1-c1c(-c2cccc(-c3ccc(C(=O)O)cc3Cl)c2)n(S(=O)(=O)c2ccc(C(F)F)cc2)c2ccc(F)cc12 [11/26] | – | – | < 100 | – | D (<0.3) | 30 to 60 | D (<0.3)
16 | COc1c(C(=O)O)ccc(-c2cccc(-c3c(-c4ccccc4C#N)c4cc(F)ccc4n3S(=O)(=O)c3ccc(C(F)F)cc3)c2)c1Cl [11/27] | A (>0.9) | < 30 | < 100 | C (0.3 to ≤0.6) | – | – | –
17 | N#Cc1ccccc1-c1c(-c2cccc(-c3ccc(C(=O)O)cc3Cl)c2)n(S(=O)(=O)c2ccc(C(F)F)cc2)c2ccc(F)cc12 [11/33] | – | < 30 | < 100 | B (0.6 to ≤0.9) | – | – | –
18 | N#Cc1cccc(C#N)c1-c1c(-c2cccc(-c3ccc(C(=O)O)cc3Cl)c2)n(S(=O)(=O)c2ccc(C(F)(F)F)nc2)c2ccc(F)cc12 [11/37] | – | – | < 100 | – | – | < 30 | D (<0.3)
19 | N#Cc1ccccc1-c1c(-c2cccc(-c3ccc(C(=O)O)cc3Cl)c2)n(S(=O)(=O)c2ccc(C(F)F)cc2)c2cnccc12 [11/49] | C (0.3 to ≤0.6) | < 30 | < 100 | C (0.3 to ≤0.6) | – | – | –
20 | N#Cc1cccc(C#N)c1-c1c(-c2cccc(-c3ccc(C(=O)O)cc3F)c2)n(S(=O)(=O)c2ccc(C(F)F)cc2)c2ccc(F)cc12 [11/51] | – | – | < 100 | – | – | < 30 | D (<0.3)
21 | N#Cc1cccc(C#N)c1-c1c(-c2cccc(-c3c(F)cc(C(=O)O)cc3F)c2)n(S(=O)(=O)c2ccc(C(F)F)cc2)c2ccc(F)cc12 [11/53] | – | – | < 100 | – | – | < 30 | D (<0.3)
22 | N#Cc1cccc(C#N)c1-c1c(-c2cccc([C@H]3CC[C@H](C(=O)O)CC3)c2)n(S(=O)(=O)c2ccc(C(F)F)cc2)c2ccc(F)cc12 [11/62] | – | – | 100 to 1000 | – | – | < 30 | D (<0.3)
23 | N#Cc1cccc(C#N)c1-c1c(-c2cccc(-c3ccc(C(=O)O)cc3Cl)c2)n(S(=O)(=O)C2CCC(F)(F)CC2)c2ccc(F)cc12 [11/63] | – | – | 100 to 1000 | – | – | 30 to 60 | D (<0.3)
24 | N#Cc1cccc(C#N)c1-c1c(-c2cccc(-c3cc(F)c(C(=O)O)cc3Cl)c2)n(S(=O)(=O)c2ccc(C(F)F)cc2)c2ccc(F)cc12 [11/65] | – | – | < 100 | – | – | < 30 | D (<0.3)
25 | Cc1ccc(S(=O)(=O)n2c(-c3cccc(-c4ccc(C(=O)O)cc4)c3)c(-c3ccsc3C#N)c3cc(F)ccc32)cc1C [23/2] | – | < 30 | 100 to 1000 | C (0.3 to ≤0.6) | – | – | –
26 | CS(=O)(=O)NC(=O)c1ccc(-c2cccc(-c3c(-c4c(C#N)cccc4C#N)c4cc(F)ccc4n3S(=O)(=O)c3ccc(C(F)F)cc3)c2)c(Cl)c1 [32/5] | – | – | < 100 | – | – | 30 to 60 | C (0.3 to ≤0.6)
27 | N#Cc1cccc(C#N)c1-c1c(-c2cccc(-c3ccc(C(=O)NCC(=O)O)cc3Cl)c2)n(S(=O)(=O)c2ccc(C(F)F)cc2)c2ccc(F)cc12 [Compound 21/3] | – | – | < 100 | – | C (0.3 to ≤0.6) | < 30 | –
